Results as given in the NIST ThermoML archive (doi:10.1021/je800334m).
± gives the expanded uncertainty stated by the source.

Experiment: excess molar enthalpy (molar enthalpy of mixing); xn = mol fraction of the nth substance listed
Details: Liquid, Flow calorimetry

CN(C)CCO [2-(N,N-dimethylamino)ethanol] + CO
Details	excess molar enthalpy [kcal/mol]
298.2 K, 100 kPa, x1 = 0.0499	-0.0602 ± 0.00167
298.2 K, 100 kPa, x1 = 0.099	-0.108 ± 0.00263
298.2 K, 100 kPa, x1 = 0.1495	-0.144 ± 0.00311
298.2 K, 100 kPa, x1 = 0.1981	-0.172 ± 0.00382
298.2 K, 100 kPa, x1 = 0.2479	-0.193 ± 0.00406
298.2 K, 100 kPa, x1 = 0.2982	-0.207 ± 0.00454
298.2 K, 100 kPa, x1 = 0.3481	-0.214 ± 0.00454
298.2 K, 100 kPa, x1 = 0.3968	-0.217 ± 0.00454
298.2 K, 100 kPa, x1 = 0.4466	-0.214 ± 0.00454
298.2 K, 100 kPa, x1 = 0.4972	-0.207 ± 0.00454
298.2 K, 100 kPa, x1 = 0.5483	-0.197 ± 0.0043
298.2 K, 100 kPa, x1 = 0.5992	-0.183 ± 0.00406
298.2 K, 100 kPa, x1 = 0.6494	-0.167 ± 0.00359
298.2 K, 100 kPa, x1 = 0.6981	-0.149 ± 0.00335
298.2 K, 100 kPa, x1 = 0.7506	-0.127 ± 0.00287
298.2 K, 100 kPa, x1 = 0.8007	-0.105 ± 0.00234
298.2 K, 100 kPa, x1 = 0.8477	-0.0821 ± 0.00186
298.2 K, 100 kPa, x1 = 0.8977	-0.0564 ± 0.00136
298.2 K, 100 kPa, x1 = 0.9512	-0.027 ± 0.000669
298.2 K, 10000 kPa, x1 = 0.05	-0.0659 ± 0.00174
298.2 K, 10000 kPa, x1 = 0.0993	-0.112 ± 0.00263
298.2 K, 10000 kPa, x1 = 0.1479	-0.146 ± 0.00311
298.2 K, 10000 kPa, x1 = 0.1986	-0.175 ± 0.00382
298.2 K, 10000 kPa, x1 = 0.2485	-0.194 ± 0.0043
298.2 K, 10000 kPa, x1 = 0.2961	-0.207 ± 0.00454
298.2 K, 10000 kPa, x1 = 0.3458	-0.214 ± 0.00454
298.2 K, 10000 kPa, x1 = 0.3976	-0.216 ± 0.00454
298.2 K, 10000 kPa, x1 = 0.4474	-0.214 ± 0.00454
298.2 K, 10000 kPa, x1 = 0.4981	-0.207 ± 0.00454
298.2 K, 10000 kPa, x1 = 0.5447	-0.198 ± 0.0043
298.2 K, 10000 kPa, x1 = 0.5952	-0.184 ± 0.00406
298.2 K, 10000 kPa, x1 = 0.645	-0.168 ± 0.00359
298.2 K, 10000 kPa, x1 = 0.6988	-0.148 ± 0.00311
298.2 K, 10000 kPa, x1 = 0.7452	-0.129 ± 0.00287
298.2 K, 10000 kPa, x1 = 0.7948	-0.108 ± 0.00239
298.2 K, 10000 kPa, x1 = 0.8481	-0.0818 ± 0.00186
298.2 K, 10000 kPa, x1 = 0.898	-0.0562 ± 0.00136
313.2 K, 100 kPa, x1 = 0.0499	-0.062 ± 0.00167
313.2 K, 100 kPa, x1 = 0.099	-0.109 ± 0.00263
313.2 K, 100 kPa, x1 = 0.1495	-0.148 ± 0.00335
313.2 K, 100 kPa, x1 = 0.1981	-0.177 ± 0.00382
313.2 K, 100 kPa, x1 = 0.2479	-0.197 ± 0.0043
313.2 K, 100 kPa, x1 = 0.2982	-0.21 ± 0.00454
313.2 K, 100 kPa, x1 = 0.3481	-0.217 ± 0.00454
313.2 K, 100 kPa, x1 = 0.3968	-0.219 ± 0.00478
313.2 K, 100 kPa, x1 = 0.4466	-0.217 ± 0.00454
313.2 K, 100 kPa, x1 = 0.4972	-0.211 ± 0.00454
313.2 K, 100 kPa, x1 = 0.5483	-0.199 ± 0.0043
313.2 K, 100 kPa, x1 = 0.5992	-0.187 ± 0.00406
313.2 K, 100 kPa, x1 = 0.6494	-0.17 ± 0.00359
313.2 K, 100 kPa, x1 = 0.6981	-0.151 ± 0.00335
313.2 K, 100 kPa, x1 = 0.7506	-0.13 ± 0.00287
313.2 K, 100 kPa, x1 = 0.8007	-0.106 ± 0.00237
313.2 K, 100 kPa, x1 = 0.8477	-0.0831 ± 0.00189
313.2 K, 100 kPa, x1 = 0.8977	-0.0566 ± 0.00136
313.2 K, 100 kPa, x1 = 0.9512	-0.028 ± 0.000693
313.2 K, 10000 kPa, x1 = 0.0502	-0.0624 ± 0.0017
313.2 K, 10000 kPa, x1 = 0.0996	-0.111 ± 0.00263
313.2 K, 10000 kPa, x1 = 0.1484	-0.148 ± 0.00335
313.2 K, 10000 kPa, x1 = 0.1992	-0.177 ± 0.00382
313.2 K, 10000 kPa, x1 = 0.2491	-0.198 ± 0.0043
313.2 K, 10000 kPa, x1 = 0.2968	-0.211 ± 0.00454
313.2 K, 10000 kPa, x1 = 0.3465	-0.219 ± 0.00478
313.2 K, 10000 kPa, x1 = 0.3983	-0.222 ± 0.00478
313.2 K, 10000 kPa, x1 = 0.4482	-0.219 ± 0.00478
313.2 K, 10000 kPa, x1 = 0.4989	-0.213 ± 0.00454
313.2 K, 10000 kPa, x1 = 0.5455	-0.203 ± 0.0043
313.2 K, 10000 kPa, x1 = 0.596	-0.19 ± 0.00406
313.2 K, 10000 kPa, x1 = 0.6457	-0.174 ± 0.00382
313.2 K, 10000 kPa, x1 = 0.6995	-0.153 ± 0.00335
313.2 K, 10000 kPa, x1 = 0.7458	-0.133 ± 0.00287
313.2 K, 10000 kPa, x1 = 0.7953	-0.111 ± 0.00239
313.2 K, 10000 kPa, x1 = 0.8485	-0.0847 ± 0.00194
313.2 K, 10000 kPa, x1 = 0.8983	-0.0578 ± 0.00141
328.2 K, 100 kPa, x1 = 0.1479	-0.141 ± 0.00311
328.2 K, 100 kPa, x1 = 0.1972	-0.171 ± 0.00382
328.2 K, 100 kPa, x1 = 0.2469	-0.192 ± 0.00406
328.2 K, 100 kPa, x1 = 0.2976	-0.206 ± 0.0043
328.2 K, 100 kPa, x1 = 0.3469	-0.214 ± 0.00454
328.2 K, 100 kPa, x1 = 0.3974	-0.216 ± 0.00454
328.2 K, 100 kPa, x1 = 0.4466	-0.214 ± 0.00454
328.2 K, 100 kPa, x1 = 0.4956	-0.207 ± 0.00454
328.2 K, 100 kPa, x1 = 0.5465	-0.197 ± 0.0043
328.2 K, 100 kPa, x1 = 0.5963	-0.183 ± 0.00406
328.2 K, 100 kPa, x1 = 0.6473	-0.167 ± 0.00359
328.2 K, 10000 kPa, x1 = 0.1487	-0.142 ± 0.00311
328.2 K, 10000 kPa, x1 = 0.1983	-0.171 ± 0.00382
328.2 K, 10000 kPa, x1 = 0.2481	-0.194 ± 0.0043
328.2 K, 10000 kPa, x1 = 0.2973	-0.207 ± 0.00454
328.2 K, 10000 kPa, x1 = 0.3465	-0.216 ± 0.00454
328.2 K, 10000 kPa, x1 = 0.397	-0.218 ± 0.00478
328.2 K, 10000 kPa, x1 = 0.446	-0.217 ± 0.00454
328.2 K, 10000 kPa, x1 = 0.4972	-0.21 ± 0.00454
328.2 K, 10000 kPa, x1 = 0.5455	-0.201 ± 0.0043
328.2 K, 10000 kPa, x1 = 0.5979	-0.187 ± 0.00406
328.2 K, 10000 kPa, x1 = 0.6457	-0.172 ± 0.00382
328.2 K, 10000 kPa, x1 = 0.6973	-0.153 ± 0.00335
